In patent US9493663B2, “Photopolymerizable inkjet ink, ink cartridge, and printer” (RICOH COMPANY, LTD., priority 2011, dated 2016):

Assay: skin sensitization test (LLNA, Local Lymph Node Assay, OECD test guideline 429), Stimulation Index
Format: in vivo
Conditions: SI less than 3 judged negative
From the text: As described in literatures (for example, “Functional Material” (Kino Zairyou) 2005, September, Vol. 25, No. 9, p. 55), the compound having a Stimulation Index (SI value) of less than 3, where the Stimulation Index indicates the extent of skin sensitization, is judged as being negative for skin sensitization. […] The lower SI value means lower skin sensitization. […] The SI value of the monomer or the oligomer used is preferably 2 or lower, more preferably 1.6 or lower.
The description “negative” or “none” is equivalent to the SI value of less than 3.

| Compound | SI value (Stimulation Index) |
| --- | --- |
| C=C(C)C(=O)OCC(C)(C)COC(=O)C(=C)C [Example A1, Neopentyl glycol dimethacrylate] | 2.0 |
| C=C(C)C(=O)OCC(CC)(COC(=O)C(=C)C)COC(=O)C(=C)C [Example A5, Trimethylolpropane trimethacrylate] | 1.9 |
| C=CC(=O)OCCCCCCCCCCCCCCCCCC [Example A12, Stearyl acrylate] | 2.7 |
| C=C(C)C(=O)OCCCCOC(=O)C(=C)C [Example A13, 1,4-Butanediol dimethacrylate] | 2.6 |
| C=CC(=O)OCCCCCCCCCCCCCCCC(C)C [Example A19, Isostearyl acrylate] | 1.4 |
| C=C(C)C(=O)OCCCCCCCCCCCCCCCCCC [Example A21, Stearyl methacrylate] | 1.2 |
| Polyethoxylated tetramethylolmethane tetraacrylate [Example A9] | 1.7 |
| Polyethylene glycol dimethacrylate represented by General Formula (1) (n is nearly equal to 2) [Example A23] | 1.1 |
| Polyethylene glycol dimethacrylate represented by General Formula (1) (n is nearly equal to 14) [Example A3] | 1.6 |
| Polyethylene glycol dimethacrylate represented by the following General Formula (1) (n is nearly equal to 9) [Example A2] | 1.3 |
| Polypropylene glycol diacrylate [Example A14, Polypropylene glycol diacrylate [CH2═CH—CO—(OC3H6)n—OCOCH═CH2 (n is nearly equal to 12)]] | 1.5 |
| Tricyclodecanedimethanol dimethacrylate [Example A6] | 1.3 |
| γ-Butyrolactone methacrylate [Example A4] | 2.1 |

Assay: not given
Conditions: MSDS; equivalent to SI value of less than 3; cited from earlier work

| Compound | skin sensitization evaluated in MSDS |
| --- | --- |
| Caprolactone-modified dipentaerythritol hexaacrylate [Example A7] | negative |

Same assay, conditions: literature; equivalent to SI value of less than 3; cited from earlier work

| Compound | skin sensitization evaluated in literature |
| --- | --- |
| C=C(C)C(=O)OC(C)(C)C [Example A15, t-Butyl methacrylate] | negative |
| C=C(C)C(=O)OCCCCC [Example A16, n-Pentyl methacrylate] | negative |
| C=C(C)C(=O)OCCCCCC [Example A17, n-Hexyl methacrylate] | negative |
